Measurements taken from ChEMBL document CHEMBL1133790, “Heteroaryl and cycloalkyl sulfonamide hydroxamic acid inhibitors of matrix metalloproteinases” (Bioorg Med Chem Lett, 2001).
Activity calls are given as the source filed them. No cut-off for these calls is given here.

Legend:
Interstitial collagenase = biological target: T1, Interstitial collagenase (Homo sapiens, UniProt P03956); experiment: Inhibition of Matrix metalloprotease-1
T1 sequence (P03956 whole entry): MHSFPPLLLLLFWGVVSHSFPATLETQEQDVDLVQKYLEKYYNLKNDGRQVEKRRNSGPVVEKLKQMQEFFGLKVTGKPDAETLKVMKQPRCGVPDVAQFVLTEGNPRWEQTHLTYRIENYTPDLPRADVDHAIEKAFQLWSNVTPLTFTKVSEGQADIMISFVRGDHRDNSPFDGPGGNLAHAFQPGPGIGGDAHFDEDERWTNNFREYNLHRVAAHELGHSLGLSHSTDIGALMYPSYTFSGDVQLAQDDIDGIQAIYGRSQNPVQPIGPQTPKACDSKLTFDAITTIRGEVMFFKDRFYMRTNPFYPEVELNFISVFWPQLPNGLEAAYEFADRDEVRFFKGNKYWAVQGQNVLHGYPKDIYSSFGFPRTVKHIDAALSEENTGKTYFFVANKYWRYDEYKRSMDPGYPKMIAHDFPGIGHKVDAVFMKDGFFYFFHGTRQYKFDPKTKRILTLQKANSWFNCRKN

[1] = biological target: T2, Matrix metalloproteinase-9 (Homo sapiens, UniProt P14780); experiment: Inhibition of Matrix metalloprotease-9
T2 sequence (P14780 whole entry): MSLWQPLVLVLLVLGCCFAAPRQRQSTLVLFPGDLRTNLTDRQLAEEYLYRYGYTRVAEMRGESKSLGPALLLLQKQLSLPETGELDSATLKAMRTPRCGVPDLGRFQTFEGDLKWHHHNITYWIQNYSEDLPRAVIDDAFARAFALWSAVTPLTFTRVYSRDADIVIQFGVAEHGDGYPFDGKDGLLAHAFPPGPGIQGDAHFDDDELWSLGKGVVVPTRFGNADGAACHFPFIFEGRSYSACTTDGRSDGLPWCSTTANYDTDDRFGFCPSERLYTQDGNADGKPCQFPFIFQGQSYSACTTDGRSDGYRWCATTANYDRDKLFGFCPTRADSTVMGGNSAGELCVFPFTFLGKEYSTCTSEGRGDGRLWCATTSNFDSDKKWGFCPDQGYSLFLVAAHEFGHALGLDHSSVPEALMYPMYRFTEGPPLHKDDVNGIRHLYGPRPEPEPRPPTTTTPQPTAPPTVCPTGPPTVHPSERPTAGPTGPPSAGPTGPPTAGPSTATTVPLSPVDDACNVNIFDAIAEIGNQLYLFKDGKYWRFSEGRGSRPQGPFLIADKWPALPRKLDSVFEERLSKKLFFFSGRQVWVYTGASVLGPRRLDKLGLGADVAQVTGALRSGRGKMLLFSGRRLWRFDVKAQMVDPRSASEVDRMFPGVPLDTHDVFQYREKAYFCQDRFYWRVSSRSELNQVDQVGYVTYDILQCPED

[2] = biological target: T3, Interstitial collagenase (Homo sapiens) (UniProt P03956); experiment: Inhibition of Matrix metalloprotease-1 at 1 uM
T3 sequence (whole entry): T1 sequence (P03956 whole entry)

Rattus norvegicus [3] = experiment: Inhibitory activity against MMP-9 in rat dialysis implant bioactivity model at oral dose of 100 mg/kg; In active; format: functional, organism-based; set-up: dose 100 mg/kg
[4] = biological target: T2, Matrix metalloproteinase-9; experiment: Inhibition of Matrix metalloprotease-9 at 10 uM
Collagenase 3 [5] = biological target: T4, Collagenase 3 (Homo sapiens, UniProt P45452); experiment: Inhibition of Matrix metalloprotease-13
[6] = biological target: T2, Matrix metalloproteinase-9; experiment: Inhibition of Matrix metalloprotease-9 at 0.3 uM
Collagenase 3 [7] = biological target: T4, Collagenase 3; experiment: Inhibition of Matrix metalloprotease-13 at 0.3 uM
Rattus norvegicus [8] = experiment: In vivo inhibitory activity against Matrix metalloprotease-13 in rat dialysis implant bioactivity model at a concentration of 50 mg/kg; Not active; format: functional, organism-based; set-up: dose 50 mg/kg

**Q.** Which results are given for `COc1ccc(S(=O)(=O)N(Cc2ccccc2)C2CCCC[C@H]2C(=O)NO)cc1` (some centres not stated)?
**A.** IC50 (Interstitial collagenase): 174 nM; IC50 [1]: 181 nM

**Q.** Which results are given for `COc1ccc(S(=O)(=O)N(Cc2cccnc2)c2c(C(=O)NO)csc2Br)cc1`?
**A.** inhibition [2]: 50%; Activity (Rattus norvegicus [3]): inactive

**Q.** `COc1ccc(S(=O)(=O)N(Cc2ccccc2)c2cscc2C(=O)NO)cc1` was tested. Which inhibition [4] did it give?
**A.** 67%

**Q.** What about the inhibition [2] of the same compound?
**A.** 40%

**Q.** How did the IC50 (Collagenase 3 [5]) turn out when `COc1ccc(S(=O)(=O)N(Cc2ccccc2)c2c(C(=O)NO)csc2Br)cc1` was run?
**A.** 427 nM

**Q.** Which results are given for `COc1ccc(S(=O)(=O)N(Cc2ccccc2)c2ccsc2C(=O)NO)cc1`?
**A.** inhibition [4]: 57%; inhibition [2]: 19%

**Q.** `COc1ccc(S(=O)(=O)N(Cc2ccccc2)[C@H]2CCCC[C@H]2C(=O)NO)cc1` was tested. Which IC50 (Interstitial collagenase) did it give?
**A.** 361 nM

**Q.** What about the IC50 [1] of the same compound?
**A.** 318 nM

**Q.** Which inhibition [6] does the source give for `C#Cc1scc(C(=O)NO)c1N(Cc1ccccc1)S(=O)(=O)c1ccc(OC)cc1` here?
**A.** 38%

**Q.** And the inhibition [2]?
**A.** 49%

**Q.** What about the inhibition (Collagenase 3 [7]) of the same compound?
**A.** 35%

**Q.** For `COc1ccc(S(=O)(=O)N(Cc2ccccc2)c2c(C(=O)NO)cc(OC)nc2OC)cc1`, which Activity (Rattus norvegicus [8]) is on record?
**A.** inactive

**Q.** For `COc1ccc(S(=O)(=O)N(Cc2ccccc2)c2c(C(=O)NO)cnn2C)cc1`, which inhibition [2] is on record?
**A.** 22%

**Q.** And the IC50 [1]?
**A.** 900 nM
